In assay [1] the target is T1, Catalase from human erythrocytes (EC 1.11.1.6, CAT) (Homo sapiens, UniProt P04040).
T1 construct: Catalase from human erythrocytes (EC 1.11.1.6, CAT); purchased Sigma–Aldrich (Poznań, Poland); host or cells: human erythrocytes (natural source)
T1 sequence (P04040 2-527 limits assumed): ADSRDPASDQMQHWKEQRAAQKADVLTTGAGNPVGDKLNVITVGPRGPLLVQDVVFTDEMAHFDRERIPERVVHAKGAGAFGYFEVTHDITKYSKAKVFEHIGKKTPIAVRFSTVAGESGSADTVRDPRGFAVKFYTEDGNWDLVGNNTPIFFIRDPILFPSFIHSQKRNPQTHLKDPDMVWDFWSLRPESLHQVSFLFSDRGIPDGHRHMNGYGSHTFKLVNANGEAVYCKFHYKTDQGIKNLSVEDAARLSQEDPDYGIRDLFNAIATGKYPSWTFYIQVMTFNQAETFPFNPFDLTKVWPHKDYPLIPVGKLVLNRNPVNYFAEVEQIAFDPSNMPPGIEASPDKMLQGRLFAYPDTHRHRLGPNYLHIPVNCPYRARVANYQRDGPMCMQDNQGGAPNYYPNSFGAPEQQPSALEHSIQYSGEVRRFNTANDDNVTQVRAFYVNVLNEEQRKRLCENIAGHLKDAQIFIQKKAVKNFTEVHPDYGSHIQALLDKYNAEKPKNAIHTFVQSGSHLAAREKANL
Kind of assay: Catalase (CAT) inhibition kinetics by capillary electrophoresis (hydrogen peroxide/guaiacol/tetraguaiacol). As to conditions: for Type of inhibition: from Km and Vmax versus control system; for IC50: from activity (%) versus inhibitor concentration plots, one value per compound; for Slope (slope angle of Lineweaver–Burk line): n = 6; for tetraguaiacol (TGCOL) concentration in the presence of inhibitor / guaiacol (GCOL) concentration in the presence of inhibitor: hydrogen peroxide 10 mM, 20.00 mM GCOL; for tetraguaiacol (TGCOL) concentration in the presence of inhibitor: without inhibitors 0.00 mM; for guaiacol (GCOL) concentration in the presence of inhibitor: without inhibitors 20.00 mM. It is filed as biochemical. From the text:
In this study, we used the capillary electrophoresis (CE) method developed by us to determine the tetraguaiacol complex as a product of the catalase-catalyzed reaction (CAT) (Table 1) in the presence of the enzyme, hydrogen peroxide (HPER) (as a substrate), guaiacol (GCOL) and inhibitors (I), (II), (III) and (IV) (Figure 2). Based on this method, we investigated changes in the concentration of guaiacol reacting with changes in the concentration of hydrogen peroxide depending on the activity of catalase and changes in the concentrations of the formed tetraguaiacol as the final reaction product. The developed CE technique made it possible to measure all the parameters thanks to the possibility of using three wavelengths simultaneously in one analysis. Investigations of kinetic parameters were based on mutual measurements of concentration changes between guaiacol (as the second reactant reacting with hydrogen peroxide) and tetraguaiacol as the final reaction product.
For the development of this method, we optimized the buffer pH, separating background electrolyte (BGE) concentration, wavelength, temperature, and voltage in accordance with the earlier procedure. […]. All these separation systems were tested to achieve the best separation parameters, resolution, and analysis time for all components in the reaction mixture. The best separation of tetraguaiacol, guaiacol, catalase (CAT) and compounds (I), (II), (III), (IV) was obtained with 100 mM phosphate buffer (pH 7.5). The measurements were taken at 214, 274 and 470 nm with a fused-silica capillary (effective length: 20 cm, diameter: 50 μm). The capillary temperature was 25 °C, which allowed the best resolution to be achieved. Separation was carried out at 20 kV. Each sample was added to the capillary under hydrodynamic injection. Average detection times for guaiacol (GCOL), compounds (I), (II), (III), (IV), tetraguaiacol (TGCOL) and CAT were […], respectively (Figure 2). […]. […]
Electrophoretic separations of catalase (CAT), hydrogen peroxide, guaiacol (GCOL) tetra guaiacol (TGCOL), and inhibitors (I), (II), (III) and (IV) of catalase, by CE was performed using 100 mM (NaH2PO4) phosphate buffer as a background electrolyte (BGE) adjusted with 100 mM sodium hydroxide to the pH = 7.5. The samples were injected under 5 psi pressure for 3 s. The experiments were performed under constant current conditions (97 μA). The separation temperature was 25 °C, and the detection wavelengths were set at 214, 274 and 470 nm. Before the assay, the capillary was conditioned according to the previously described procedure.
Sample mixtures containing catalase (CAT), hydrogen peroxide (HPER), guaiacol (GCOL), tetra guaiacol (TGCOL), and inhibitors (I), (II), (III) and (IV) were introduced automatically by pressure injection (with 5 psi pressure for 3 s on the sample solution). At the day’s end, vials with anode and a cathode buffer were emptied and a running buffer was filled again at the start of the next day before the analysis. The detector wavelength was fixed at 470 nm. Hydrogen peroxide was not detected at wavelength of 470 nm. The appropriate parameters for analyzing CAT, TGCOL and (I), (II), (III) and (IV) inhibitors were as follows: phosphate buffer (pH = 7.5) of 100 mM concentration, 25 °C temperature, and 20 kV voltage.
The CAT in the amount of 10 μg was dissolved in the 10 mL 100 mM phosphate buffer, pH 7.5 and divided into several portions, which were stored at −20 °C. One aliquot was thawed each day and the CAT activity was checked. For kinetic studies a catalase solution with a final concentration of 1 µg/mL was prepared. The working solutions of GCOL, TGCOL and HPER in appropriate concentrations were prepared immediately before use by dilution with the phosphate buffer according to the previously described procedure. […]

In assay [2] the test system is alkaline phosphatase. As to conditions: cited from earlier work.
Assay [3] relates to acid phosphatase. More on the design: method as in PMID 34769193. As to conditions: cited from earlier work.
In assay [4] the test system is acetylcholinesterase. As to conditions: cited from earlier work.
Assay [5] deals with CAT. As to conditions: cited from earlier work.
[6] abbreviates: inhibitor 2.50 mM, without inhibitor 1.26 ± 0.02.
Where [7] appears, read: inhibitor 2.50 mM, without inhibitor 23.31 ± 0.04.

Usually IC50 stands for the midpoint of a concentration-inhibition curve. Usually Vmax stands for the rate approached at saturating substrate.

Where two headings read alike, the source gives them in different places.

Consider `CCC12C(=O)C(CC)(C(c3ccccc3)=C1c1ccccc1)C1C(=O)N(CC(O)CN(C)C)C(=O)C12` (stereo not shown) [Compound (II)], for which the Type of inhibition result in assay [1] was “Competitive”. It took 12.8 ± 0.07 mM to reach half-maximal inhibition in assay [1] (IC50). In addition, the Vmax in assay [1] (setting [6]) is 1.24 ± 0.06 mM/min; in assay [1] (inhibitor 5.00 mM) it was 1.24 ± 0.06 mM/min; in assay [1] (inhibitor 10.00 mM), 1.26 ± 0.03 mM/min; in assay [1] (inhibitor 15.00 mM), 1.25 ± 0.04 mM/min; in assay [1] (inhibitor 20.00 mM), 1.24 ± 0.04 mM/min. The “Slope (slope angle of Lineweaver–Burk line)” value (“Slope” for short) turned out to be 23.70 ± 0.05 in assay [1] (setting [7]); 24.24 ± 0.05 in assay [1] (inhibitor 5.00 mM); 25.30 ± 0.06 in assay [1] (inhibitor 10.00 mM); 26.00 ± 0.04 in assay [1] (inhibitor 15.00 mM); 27.06 ± 0.05 in assay [1] (inhibitor 20.00 mM). Besides, in assay [1] (inhibitor 20.00 mM), the “tetraguaiacol (TGCOL) concentration in the presence of inhibitor” value (shortened to “tetraguaiacol … of inhibitor”) is 2.44 mM. In assay [1] (inhibitor 20.00 mM), the “guaiacol (GCOL) concentration in the presence of inhibitor” value worked out at 17.56 mM. Further, the “inhibition of enzymatic activity” value in assay [2], in assay [3] and in assay [4] was “inhibited” in each case.

Consider `CCC12C(=O)C(CC)(C(c3ccccc3)=C1c1ccccc1)C1C(=O)N(CC(O)CNC(C)C)C(=O)C12` (stereo not shown) [Compound (I)], for which the Type of inhibition entry in assay [1] was “Competitive”. In assay [1], the concentration for half-maximal inhibition (IC50) stood at 11.4 ± 0.05 mM. The Vmax in assay [1] (setting [6]) is on record as 1.25 ± 0.04 mM/min; in assay [1] (inhibitor 5.00 mM), 1.24 ± 0.07 mM/min; in assay [1] (inhibitor 10.00 mM) it was 1.25 ± 0.05 mM/min; in assay [1] (inhibitor 15.00 mM), 1.24 ± 0.07 mM/min; in assay [1] (inhibitor 20.00 mM), 1.25 ± 0.05 mM/min. The “Slope” value in assay [1] (setting [7]) is reported as 24.72 ± 0.05; in assay [1] (inhibitor 5.00 mM), 25.43 ± 0.05; in assay [1] (inhibitor 10.00 mM), 27.33 ± 0.06; in assay [1] (inhibitor 15.00 mM), 28.62 ± 0.06; in assay [1] (inhibitor 20.00 mM), 30.75 ± 0.04. Besides, the “tetraguaiacol … of inhibitor” value in assay [1] (inhibitor 20.00 mM) came out at 5.86 mM. In addition, the “guaiacol (GCOL) concentration in the presence of inhibitor” value in assay [1] (inhibitor 20.00 mM) was found to be 14.14 mM. Besides, the “inhibition of enzymatic activity” value in assay [2], in assay [3] and in assay [4] was “inhibited” in each case.

Regarding `Nc1nc[nH]n1` [3-Amino-1,2,4-triazole], in assay [5] (specific catalase inhibitor), the IC50 is 6 mM.

With `[N-]=[N+]=[N-]` [sodium azide], the IC50 in assay [5] is 0.025 mM.

On to `CC(C)NCC(O)CN1C(=O)C2C(C1=O)C1(C)C(=O)C2(C)C(c2ccccc2)=C1c1ccccc1` (stereo not shown) [Compound (III)], for which the Type of inhibition result in assay [1] is reported as “Competitive”. In assay [1], the half-inhibitory concentration (IC50) is 10.3 ± 0.03 mM. Further, the maximum rate (Vmax) is on record as 1.24 ± 0.07 mM/min in assay [1] (setting [6]); 1.25 ± 0.08 mM/min in assay [1] (inhibitor 5.00 mM); 1.24 ± 0.07 mM/min in assay [1] (inhibitor 10.00 mM); 1.24 ± 0.09 mM/min in assay [1] (inhibitor 15.00 mM); 1.25 ± 0.02 mM/min in assay [1] (inhibitor 20.00 mM). Moreover, the “Slope” value is 25.09 ± 0.04 in assay [1] (setting [7]), 25.84 ± 0.05 in assay [1] (inhibitor 5.00 mM), 28.60 ± 0.04 in assay [1] (inhibitor 10.00 mM) and 32.68 ± 0.02 in assay [1] (inhibitor 20.00 mM). The “tetraguaiacol … of inhibitor” value in assay [1] (inhibitor 20.00 mM) was determined as 8.29 mM. Further, the “guaiacol (GCOL) concentration in the presence of inhibitor” value in assay [1] (inhibitor 20.00 mM) worked out at 11.71 mM. Moreover, the “inhibition of enzymatic activity” value in assay [2], in assay [3] and in assay [4] was “inhibited” throughout.

Take `CN(C)CC(O)CN1C(=O)C2C(C1=O)C1(C)C(=O)C2(C)C(c2ccccc2)=C1c1ccccc1` (stereo not shown) [Compound (IV)]: the Type of inhibition result in assay [1] was “Competitive”. In addition, in assay [1], the 50% inhibitory concentration (IC50) stood at 12.2 ± 0.06 mM. For the same molecule, the maximal velocity (Vmax) in assay [1] (setting [6]) is listed as 1.25 ± 0.03 mM/min; in assay [1] (inhibitor 5.00 mM) it was 1.24 ± 0.06 mM/min; in assay [1] (inhibitor 10.00 mM) it was 1.24 ± 0.06 mM/min; in assay [1] (inhibitor 15.00 mM), 1.23 ± 0.05 mM/min; in assay [1] (inhibitor 20.00 mM), 1.26 ± 0.02 mM/min. The “Slope” value is 24.33 ± 0.06 in assay [1] (setting [7]); 25.00 ± 0.05 in assay [1] (inhibitor 5.00 mM); 26.24 ± 0.04 in assay [1] (inhibitor 10.00 mM); 27.30 ± 0.05 in assay [1] (inhibitor 15.00 mM); 29.27 ± 0.03 in assay [1] (inhibitor 20.00 mM). Further, the “tetraguaiacol … of inhibitor” value in assay [1] (inhibitor 20.00 mM) worked out at 4.39 mM. Moreover, in assay [1] (inhibitor 20.00 mM), the “guaiacol (GCOL) concentration in the presence of inhibitor” value was found to be 15.61 mM. The “inhibition of enzymatic activity” value in assay [2], in assay [3] and in assay [4] was “inhibited” in each case.

Regarding `NO` [hydroxylamine], the IC50 in assay [5] is 0.02 mM.

These data come from paper PMC9266750, “Catalase Inhibition by Aminoalkanol Derivatives with Potential Anti-Cancer Activity—In Vitro and In Silico Studies Using Capillary Electrophoresis Method” (International Journal of Molecular Sciences, 2022).
